Test results as given in PubChem BioAssay (NCI).
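The compound was tested at five concentrations on cells cultured in 96-well plates, with a 48-hour exposure period. The concentration for 50% growth inhibition is given as GI50. At the TGI there is no net growth.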

Tests used:
Assay in all cases: inhibition of tumour cell growth, NCI panel, 48 h
LOX IMVI melanoma = system: LOX IMVI melanoma
SK-MEL-5 melanoma = system: SK-MEL-5 melanoma
DU-145 prostate = system: DU-145 prostate
MDA-MB-231 breast = system: MDA-MB-231 breast
SF-539 CNS = system: SF-539 CNS
NCI-H23 lung = system: NCI-H23 lung
KM12 colon = system: KM12 colon
UO-31 renal = system: UO-31 renal
HCT-15 colon = system: HCT-15 colon
CAKI-1 renal = system: CAKI-1 renal
OVCAR-5 ovarian = system: OVCAR-5 ovarian
NCI-H522 lung = system: NCI-H522 lung
SNB-19 CNS = system: SNB-19 CNS
PC-3 prostate = system: PC-3 prostate
OVCAR-3 ovarian = system: OVCAR-3 ovarian
EKVX NSCLC = system: EKVX NSCLC
MCF7 breast = system: MCF7 breast
RPMI-8226 leukemia = system: RPMI-8226 leukemia
HOP-92 NSCLC = system: HOP-92 NSCLC
HS 578T breast = system: HS 578T breast
HOP-62 NSCLC = system: HOP-62 NSCLC
M14 melanoma = system: M14 melanoma
HL-60(TB) leukemia = system: HL-60(TB) leukemia
NCI/ADR-RES ovarian = system: NCI/ADR-RES ovarian
SF-268 CNS = system: SF-268 CNS
COLO 205 colon = system: COLO 205 colon
BT-549 breast = system: BT-549 breast
MDA-MB-435 = system: MDA-MB-435
SK-MEL-28 melanoma = system: SK-MEL-28 melanoma
A549 NSCLC = system: A549 NSCLC
IGROV1 ovarian = system: IGROV1 ovarian
MDA-MB-468 breast = system: MDA-MB-468 breast
SK-MEL-2 melanoma = system: SK-MEL-2 melanoma
TK-10 renal = system: TK-10 renal
HCT-116 colon = system: HCT-116 colon
U251 CNS = system: U251 CNS
K-562 leukemia = system: K-562 leukemia
OVCAR-8 ovarian = system: OVCAR-8 ovarian
MALME-3M melanoma = system: MALME-3M melanoma
T-47D breast = system: T-47D breast
NCI-H226 lung = system: NCI-H226 lung
MOLT-4 leukemia = system: MOLT-4 leukemia
OVCAR-4 ovarian = system: OVCAR-4 ovarian
HT29 colon = system: HT29 colon
UACC-62 melanoma = system: UACC-62 melanoma
SF-295 CNS = system: SF-295 CNS
SN12C renal = system: SN12C renal
UACC-257 melanoma = system: UACC-257 melanoma
A498 renal = system: A498 renal
786-0 renal = system: 786-0 renal
RXF 393 renal = system: RXF 393 renal
NCI-H460 lung = system: NCI-H460 lung
ACHN renal = system: ACHN renal
SW-620 colon = system: SW-620 colon
SNB-75 CNS = system: SNB-75 CNS
SK-OV-3 ovarian = system: SK-OV-3 ovarian
HCC-2998 colon = system: HCC-2998 colon
CCRF-CEM leukemia = system: CCRF-CEM leukemia
SR leukemia = system: SR leukemia

## C=C1CCC2C3(C)COC(c4ccccc4)OC3CCC2(C)C1CC(Sc1ccccc1)C1=CCOC1=O (configuration not stated)
LOX IMVI melanoma
  GI50: 3.43 µM
  TGI: 14.3 µM
SK-MEL-5 melanoma
  GI50: 10.9 µM
  TGI: 23.4 µM
DU-145 prostate
  GI50: 18.5 µM
  TGI: > 100 µM
MDA-MB-231 breast
  GI50: 13.7 µM
  TGI: 49 µM
SF-539 CNS
  GI50: 6.82 µM
  TGI: 20.8 µM
NCI-H23 lung
  GI50: 25.7 µM
  TGI: > 100 µM
KM12 colon
  GI50: 11.7 µM
  TGI: > 100 µM
UO-31 renal
  GI50: 6.36 µM
  TGI: > 100 µM
HCT-15 colon
  GI50: 5.12 µM
  TGI: 45 µM
CAKI-1 renal
  GI50: 18.6 µM
  TGI: > 100 µM
OVCAR-5 ovarian
  GI50: 25.9 µM
  TGI: > 100 µM
NCI-H522 lung
  GI50: 10.4 µM
  TGI: 22.8 µM
SNB-19 CNS
  GI50: 45.1 µM
  TGI: > 100 µM
PC-3 prostate
  GI50: 5.88 µM
  TGI: > 100 µM
OVCAR-3 ovarian
  GI50: 3.66 µM
  TGI: 13.1 µM
EKVX NSCLC
  GI50: 5.77 µM
  TGI: 95.5 µM
MCF7 breast
  GI50: 3.42 µM
  TGI: > 100 µM
RPMI-8226 leukemia
  GI50: 2.59 µM
  TGI: 7.84 µM
HOP-92 NSCLC
  GI50: 6.54 µM
  TGI: 41.9 µM
HS 578T breast
  GI50: 37 µM
  TGI: > 100 µM
HOP-62 NSCLC
  GI50: 72.2 µM
  TGI: > 100 µM
M14 melanoma
  GI50: 9.87 µM
  TGI: 35 µM
HL-60(TB) leukemia
  GI50: 2.66 µM
  TGI: 8.66 µM
NCI/ADR-RES ovarian
  GI50: 4.78 µM
  TGI: 26.4 µM
SF-268 CNS
  GI50: 48.6 µM
  TGI: > 100 µM
COLO 205 colon
  GI50: 20.3 µM
  TGI: 46.8 µM
BT-549 breast
  GI50: 2.17 µM
  TGI: 9.12 µM
MDA-MB-435
  GI50: 7.09 µM
  TGI: 35.4 µM
SK-MEL-28 melanoma
  GI50: 27.2 µM
  TGI: > 100 µM
A549 NSCLC
  GI50: 13.1 µM
  TGI: > 100 µM
IGROV1 ovarian
  GI50: 17.3 µM
  TGI: > 100 µM
MDA-MB-468 breast
  GI50: 4.8 µM
  TGI: 26.4 µM
SK-MEL-2 melanoma
  GI50: 6.22 µM
  TGI: 21.9 µM
TK-10 renal
  GI50: 76.1 µM
  TGI: > 100 µM
HCT-116 colon
  GI50: 3.52 µM
  TGI: 15.5 µM
U251 CNS
  GI50: 9.9 µM
  TGI: 26.5 µM
K-562 leukemia
  GI50: 3.88 µM
  TGI: > 100 µM
OVCAR-8 ovarian
  GI50: 4.98 µM
  TGI: 29 µM
MALME-3M melanoma
  GI50: 27.9 µM
  TGI: > 100 µM
T-47D breast
  GI50: 5.2 µM
  TGI: > 100 µM
NCI-H226 lung
  GI50: 6.32 µM
  TGI: 42.4 µM
MOLT-4 leukemia
  GI50: 2.97 µM
  TGI: > 100 µM
OVCAR-4 ovarian
  GI50: 25.5 µM
  TGI: > 100 µM
HT29 colon
  GI50: 5.8 µM
  TGI: 39.7 µM
UACC-62 melanoma
  GI50: 10.3 µM
  TGI: 27.7 µM
SF-295 CNS
  GI50: 21.3 µM
  TGI: > 100 µM
SN12C renal
  GI50: 10.4 µM
  TGI: > 100 µM
UACC-257 melanoma
  GI50: 33.6 µM
  TGI: > 100 µM
A498 renal
  GI50: > 100 µM
  TGI: > 100 µM
786-0 renal
  GI50: 14.4 µM
  TGI: 40.5 µM
RXF 393 renal
  GI50: 6.61 µM
  TGI: 43 µM
NCI-H460 lung
  GI50: 17.4 µM
  TGI: > 100 µM
ACHN renal
  GI50: 12.7 µM
  TGI: > 100 µM
SW-620 colon
  GI50: 3.31 µM
  TGI: > 100 µM
SNB-75 CNS
  GI50: 1.71 µM
  TGI: > 100 µM
SK-OV-3 ovarian
  GI50: > 100 µM
  TGI: > 100 µM
HCC-2998 colon
  GI50: 22.3 µM
  TGI: > 100 µM
CCRF-CEM leukemia
  GI50: 2.35 µM
  TGI: 8.71 µM

## C/C(=N/O)c1ccc(NC(=O)CSc2nnc(-c3ccc(-c4nc5ccc(Cl)cc5[nH]4)cc3)o2)cc1
LOX IMVI melanoma
  GI50: 1.57 µM
  TGI: 2.92 µM
SK-MEL-5 melanoma
  GI50: 1.75 µM
  TGI: 3.33 µM
DU-145 prostate
  GI50: 2.09 µM
  TGI: 4.73 µM
MDA-MB-231 breast
  GI50: 1.83 µM
  TGI: 3.52 µM
SF-539 CNS
  GI50: 1.71 µM
  TGI: 3.08 µM
NCI-H23 lung
  GI50: 1.9 µM
  TGI: 4.09 µM
KM12 colon
  GI50: 2.66 µM
  TGI: 8.48 µM
UO-31 renal
  GI50: 37.2 µM
  TGI: > 100 µM
HCT-15 colon
  GI50: 34.5 µM
  TGI: > 100 µM
CAKI-1 renal
  GI50: 1.85 µM
  TGI: 3.73 µM
OVCAR-5 ovarian
  GI50: 3.33 µM
  TGI: 13.8 µM
NCI-H522 lung
  GI50: 1.57 µM
  TGI: 3.42 µM
SNB-19 CNS
  GI50: 1.9 µM
  TGI: 3.62 µM
PC-3 prostate
  GI50: 2.21 µM
  TGI: 5.08 µM
OVCAR-3 ovarian
  GI50: 1.74 µM
  TGI: 3.73 µM
EKVX NSCLC
  GI50: 3.05 µM
  TGI: 13.2 µM
MCF7 breast
  GI50: 2.2 µM
  TGI: 5.93 µM
RPMI-8226 leukemia
  GI50: 3.16 µM
  TGI: 15 µM
HOP-92 NSCLC
  GI50: 1.83 µM
  TGI: 3.86 µM
HS 578T breast
  GI50: 2.21 µM
  TGI: 5.19 µM
HOP-62 NSCLC
  GI50: 2.01 µM
  TGI: 3.95 µM
M14 melanoma
  GI50: 1.76 µM
  TGI: 3.54 µM
HL-60(TB) leukemia
  GI50: 3.63 µM
  TGI: 17.4 µM
NCI/ADR-RES ovarian
  GI50: 84.7 µM
  TGI: > 100 µM
SR leukemia
  GI50: 2.84 µM
  TGI: 15.5 µM
SF-268 CNS
  GI50: 1.83 µM
  TGI: 3.78 µM
COLO 205 colon
  GI50: 3.14 µM
  TGI: 12.2 µM
BT-549 breast
  GI50: 2.39 µM
  TGI: 4.35 µM
MDA-MB-435
  GI50: 1.65 µM
  TGI: 3.27 µM
SK-MEL-28 melanoma
  GI50: 1.73 µM
  TGI: 3.18 µM
A549 NSCLC
  GI50: 1.98 µM
  TGI: 4.2 µM
IGROV1 ovarian
  GI50: 3.35 µM
  TGI: 12 µM
MDA-MB-468 breast
  GI50: 1.81 µM
  TGI: 4.09 µM
SK-MEL-2 melanoma
  GI50: 1.78 µM
  TGI: 3.68 µM
TK-10 renal
  GI50: 5.78 µM
  TGI: 17.4 µM
HCT-116 colon
  GI50: 2.29 µM
  TGI: 5.73 µM
U251 CNS
  GI50: 1.83 µM
  TGI: 3.4 µM
K-562 leukemia
  GI50: 2.63 µM
  TGI: 10.6 µM
OVCAR-8 ovarian
  GI50: 2.94 µM
  TGI: 9.98 µM
MALME-3M melanoma
  GI50: 1.58 µM
  TGI: 2.95 µM
T-47D breast
  GI50: 2.05 µM
  TGI: 4.5 µM
NCI-H226 lung
  GI50: 1.74 µM
  TGI: 3.68 µM
MOLT-4 leukemia
  GI50: 2.62 µM
  TGI: 12.4 µM
OVCAR-4 ovarian
  GI50: 2.04 µM
  TGI: 4.58 µM
HT29 colon
  GI50: 2.44 µM
  TGI: 6 µM
UACC-62 melanoma
  GI50: 1.78 µM
  TGI: 3.36 µM
SN12C renal
  GI50: 1.87 µM
  TGI: 4.06 µM
UACC-257 melanoma
  GI50: 2.06 µM
  TGI: 4.5 µM
A498 renal
  GI50: 1.94 µM
  TGI: 4.58 µM
786-0 renal
  GI50: 1.91 µM
  TGI: 3.53 µM
RXF 393 renal
  GI50: 1.75 µM
  TGI: 3.31 µM
NCI-H460 lung
  GI50: 1.61 µM
  TGI: 3.25 µM
ACHN renal
  GI50: 2.7 µM
  TGI: 8.65 µM
SW-620 colon
  GI50: 2.84 µM
  TGI: 8.54 µM
SNB-75 CNS
  GI50: 1.57 µM
  TGI: 3.41 µM
SK-OV-3 ovarian
  GI50: 2.38 µM
  TGI: 5.33 µM
HCC-2998 colon
  GI50: 11.2 µM
  TGI: > 100 µM
CCRF-CEM leukemia
  GI50: 2.33 µM
  TGI: 6.75 µM
